Experimental data: article PMC10535624, “Curcuminoid Chalcones: Synthesis, Stability, and New Neuroprotective and Sonosensitising Activities” (Pharmaceuticals, 2023)

Tests used:
[1] = target: T1, catalase (CAT) (Aspergillus niger, UniProt P55303); experiment: Effect on CAT activity; format: biochemical; settings: samples 3 mM/dm^3 in DMSO, 0.01 mL; mean ± SEM, n = 3
T1 construct: purchased Sigma C3515
Experimental: (§1) The samples were dissolved in DMSO (Sigma D4540) to obtain a concentration of 3 mM/dm^3.
The method used by Watanabe et al. was used with the following modifications. The reaction mixture was composed of 0.02 mL of EDTA solution (56.5 mM), 0.01 mL of ^the sample, 0.02 mL of 3% H2O2 solution (Sigma H1009), and 0.02 mL of catalase solution (4000-fold diluted, Sigma C3515) (all reagents except the tested sample were diluted in TRIS buffer, pH 7.0, 1 mol/dm^3). The volume was completed to 0.31 mL by the same buffer solution. In a blank sample, DMSO (Sigma D4540) replaced the tested sample. The background of the sample was measured in a mixture composed of 0.01 mL of the sample completed to 0.31 mL by the buffer. The absorbance was read at 240 nm directly after the mixing and after 5 min of incubation (room temperature). The decreased absorbance (depletion of H2O2) in the tested and blank samples was compared. The calibration curve was produced using eleven H2O2 solutions (0.5693–5.693 mM/dm^3). The results are expressed in % inhibition and as H2O2 depletion (mmol of depleted H2O2/dm^3 min).

[2] = target: AChE (Homo sapiens, UniProt P22303); experiment: Effect on AChE activity (modified Ellman's method); format: biochemical; settings: samples 3 mM/dm^3 in DMSO, 0.035 mL; mean ± SEM, n = 3
Sequence of AChE (P22303 32-614): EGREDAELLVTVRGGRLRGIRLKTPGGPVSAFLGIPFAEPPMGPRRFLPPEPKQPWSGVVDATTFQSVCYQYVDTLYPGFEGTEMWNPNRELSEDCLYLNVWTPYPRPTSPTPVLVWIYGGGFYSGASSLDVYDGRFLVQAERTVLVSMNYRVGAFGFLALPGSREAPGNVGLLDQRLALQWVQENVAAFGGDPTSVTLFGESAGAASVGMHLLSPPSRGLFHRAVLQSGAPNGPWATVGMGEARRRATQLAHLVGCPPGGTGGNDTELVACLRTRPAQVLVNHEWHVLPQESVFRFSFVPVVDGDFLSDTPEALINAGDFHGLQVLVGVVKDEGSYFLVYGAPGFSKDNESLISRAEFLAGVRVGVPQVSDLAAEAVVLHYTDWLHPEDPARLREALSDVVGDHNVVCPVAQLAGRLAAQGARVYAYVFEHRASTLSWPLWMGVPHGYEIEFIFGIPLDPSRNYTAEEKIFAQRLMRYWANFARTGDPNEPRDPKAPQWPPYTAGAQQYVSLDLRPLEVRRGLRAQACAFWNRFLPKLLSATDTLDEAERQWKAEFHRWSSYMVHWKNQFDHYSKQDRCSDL
Description: Neurodegenerative diseases are associated with the progressive damage of neurons. During the development of these diseases, there is a loss of nerve cells and a deficiency of […], serotonin, and norepinephrine levels. The ability to inhibit acetyl- (AChE) and butyrylcholinesterase (BChE) activities is seen, among others, in organophosphorus compounds, carbamate insecticides, phenoxyacetic pesticides, and hydrogen peroxide, as well as aliphatic ketones with the carbons C4–C9, e.g., 2,5-hexandione. AChE and BChE show differences in their susceptibility to inhibitors, behaviour in situations involving excess substrate, or substrate binding specificity. Unlike, other esterases, both enzymes hydrolyse choline esters at very high speeds. Thus, in our work, the modified Elman’s method was used to investigate the anti-AChE and anti-BChE effects of curcuminoid chalcone.
as §1
The analysis was performed strictly as described by Studzińska-Sroka et al., except that the volume of the tested samples added to the reaction mixture was 0.035 mL.

[3] = Stress test: oxidative degradation (RP-HPLC); format: physicochemical; settings: for ICH Classification: oxidising environment
Experimental: Stock solutions of the test substances (2 or 6) were prepared by dissolving 1 mg of each test substance in 1.5 mL of a mixture of DMSO and MeOH (1:6, v/v). Then, 2 mL solutions of compounds 2 and 6 were prepared at ~30 μg/mL in a hydrogen peroxide solution (1, 3, and 10%). The solutions were placed in dark glass vials and encapsulated, and after an appropriate time (Table 1) the samples were diluted with methanol (1:1, v/v) and transferred to the chromatographic column.

[4] = system: SOD2 gene; set-up: method as in PMID 37779412; settings: qRT-PCR ref 35; cited from earlier work
[5] = system: SCC-25 cells; experiment: Sonodynamic cytotoxicity, MTT test; format: cell-based, human; settings: 40 µM, 8 h, then US 3 min, 3 MHz, 0.8 W/cm^2; MTT 6 h later; compared to untreated cells

T1 sequence (P55303 whole entry): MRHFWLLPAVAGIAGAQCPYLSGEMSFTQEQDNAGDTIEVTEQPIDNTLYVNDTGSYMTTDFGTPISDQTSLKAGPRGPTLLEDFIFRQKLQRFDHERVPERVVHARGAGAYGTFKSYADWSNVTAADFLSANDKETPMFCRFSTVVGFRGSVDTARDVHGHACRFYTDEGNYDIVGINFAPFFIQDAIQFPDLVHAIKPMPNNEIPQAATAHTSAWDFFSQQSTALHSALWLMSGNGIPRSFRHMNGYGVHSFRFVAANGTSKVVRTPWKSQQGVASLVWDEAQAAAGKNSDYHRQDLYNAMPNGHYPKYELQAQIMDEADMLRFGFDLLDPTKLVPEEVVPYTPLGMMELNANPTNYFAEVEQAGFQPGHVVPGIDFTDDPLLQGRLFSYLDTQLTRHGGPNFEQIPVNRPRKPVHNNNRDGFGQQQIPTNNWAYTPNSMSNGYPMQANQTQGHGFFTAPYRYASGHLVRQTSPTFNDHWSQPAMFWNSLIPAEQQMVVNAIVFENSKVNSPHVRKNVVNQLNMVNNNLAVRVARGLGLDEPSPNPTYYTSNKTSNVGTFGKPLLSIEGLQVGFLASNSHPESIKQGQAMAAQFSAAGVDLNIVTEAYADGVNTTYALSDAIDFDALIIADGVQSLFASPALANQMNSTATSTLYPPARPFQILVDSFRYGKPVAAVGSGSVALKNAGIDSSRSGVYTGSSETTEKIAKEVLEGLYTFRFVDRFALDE

SMILES	CAT Inhibition (%) [1]	CAT Inhibition of the H2O2 Depletion [1]	AChE % (inhibition) [2]	AChE, Equivalent Concentration of Reference Compound Magniflorine [2]	AChE, Equivalent Concentration of Reference Compound Rivastigmine [2]	% Decomposition ([3]; H2O2 1%, 30 min)	Ct ([3]; H2O2 1%, 30 min)	% Decomposition ([3]; H2O2 3%, 24 h)	Ct ([3]; H2O2 3%, 24 h)	% Decomposition ([3]; H2O2 10%, 24 h)	Ct ([3]; H2O2 10%, 24 h)	ICH Classification ([3]; H2O2 10%, 24 h)	Decrease of expression of the SOD2 gene compared to the control [4]	Reduction of viability of SCC-25 cells, compound combined with US [5]
COc1ccc(C=CC(=O)c2ccccc2)cc1OC(=O)C(C)c1ccc(CC(C)C)cc1 (stereo not drawn) [Compound 6, 2-Methoxy-5-(3-oxo-3-phenylprop-1-en-1-yl)phenyl-2-(4-isobutylphenyl)-propionate]	41.9 ± 1.2%	0.15 ± 0.01 mm/dm^3/min	73.7 ± 5.1%	0.28 ± 0.02 µg/mL	0.42 ± 0.03 µg/mL	<0.5%	29.7 µg/mL	<0.5%	29.9 µg/mL	<0.5%	30.0 µg/mL	practically stable	65.20%	–
COc1cc(C=CC(=O)c2ccccc2)ccc1OC(=O)C(C)c1ccc(CC(C)C)cc1 (stereo not drawn) [Compound 2, 2-Methoxy-4-(3-oxo-3-phenylprop-1-en-1-yl)phenyl-2-(4-isobutylphenyl)-propionate]	–	–	90.5 ± 4.2%	0.34 ± 0.02 µg/mL	0.52 ± 0.02 µg/mL	<0.5%	29.9 µg/mL	<0.5%	29.8 µg/mL	<0.5%	30.1 µg/mL	practically stable	–	significantly reduced viability
